The record followed here is ChEMBL document CHEMBL4270563, “Neurogenic and neuroprotective donepezil-flavonoid hybrids with sigma-1 affinity and inhibition of key enzymes in Alzheimer's disease” (Eur J Med Chem, 2018).

Data set [1] has as its system SH-SY5Y. In words: Neuroprotective activity against rotenone/oligomycin A-induced mitochondrial oxidative stress in human SH-SY5Y cells at 1 uM after 24 hrs by MTT assay relative to control. It counts as functional.
Data set [2] has as its target T1, Amine oxidase [flavin-containing] A (Homo sapiens, UniProt P21397).
T1 sequence (P21397 whole entry): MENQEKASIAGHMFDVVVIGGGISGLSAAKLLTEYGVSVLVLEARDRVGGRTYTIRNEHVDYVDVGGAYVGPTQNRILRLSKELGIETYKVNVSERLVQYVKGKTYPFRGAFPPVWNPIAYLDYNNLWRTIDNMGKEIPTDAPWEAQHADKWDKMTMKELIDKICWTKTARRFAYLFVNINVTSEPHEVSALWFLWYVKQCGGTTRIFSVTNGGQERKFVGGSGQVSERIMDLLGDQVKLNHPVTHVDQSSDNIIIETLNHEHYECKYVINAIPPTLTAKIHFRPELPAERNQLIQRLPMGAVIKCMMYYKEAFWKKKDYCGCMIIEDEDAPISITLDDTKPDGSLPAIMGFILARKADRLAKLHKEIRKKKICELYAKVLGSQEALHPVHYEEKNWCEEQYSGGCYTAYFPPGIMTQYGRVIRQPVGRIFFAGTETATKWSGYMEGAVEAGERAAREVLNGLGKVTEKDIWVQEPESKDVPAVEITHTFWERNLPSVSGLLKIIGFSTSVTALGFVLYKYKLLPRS
In words: Inhibition of recombinant human MAO-A expressed in baculovirus infected BTI insect cells using p-tyramine as substrate pretreated for 15 mins followed by substrate addition by horse-radish peroxidase/amplex red-based fluorescence method.

The species entered for data set [3] is Homo sapiens. Nature of the data set: Selectivity index, ratio of IC50 for human serum BuChE to IC50 for recombinant human AChE expressed in HEK293 cells. It counts as cell-based.
Data set [4] is described as follows: Antioxidant activity assessed as trolox equivalent of AAPH-induced radical scavenging activity pretreated for 15 mins followed by APPH challenge measured every minute for 80 mins by ORAC-FL assay. It counts as functional.
The target of data set [5] is T2, Polyunsaturated fatty acid 5-lipoxygenase (Homo sapiens, UniProt P09917).
T2 sequence (P09917 whole entry): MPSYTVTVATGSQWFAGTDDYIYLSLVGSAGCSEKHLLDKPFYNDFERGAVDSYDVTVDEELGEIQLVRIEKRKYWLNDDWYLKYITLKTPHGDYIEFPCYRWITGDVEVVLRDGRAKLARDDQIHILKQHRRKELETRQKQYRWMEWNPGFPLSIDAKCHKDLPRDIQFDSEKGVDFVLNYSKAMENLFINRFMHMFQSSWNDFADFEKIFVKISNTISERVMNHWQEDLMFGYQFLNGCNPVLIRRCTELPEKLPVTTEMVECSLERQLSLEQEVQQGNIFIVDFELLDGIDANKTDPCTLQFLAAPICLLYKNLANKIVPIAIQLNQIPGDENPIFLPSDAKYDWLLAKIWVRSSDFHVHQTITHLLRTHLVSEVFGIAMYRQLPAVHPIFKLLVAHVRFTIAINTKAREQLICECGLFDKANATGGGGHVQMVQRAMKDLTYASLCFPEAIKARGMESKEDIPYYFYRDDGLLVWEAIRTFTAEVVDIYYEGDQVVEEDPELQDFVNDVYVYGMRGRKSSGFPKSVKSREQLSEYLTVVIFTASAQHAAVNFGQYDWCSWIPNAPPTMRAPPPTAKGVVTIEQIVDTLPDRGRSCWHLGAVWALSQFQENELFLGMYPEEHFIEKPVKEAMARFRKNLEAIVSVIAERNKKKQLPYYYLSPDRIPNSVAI
In words: Inhibition of human 5-lipoxygenase using arachidonic acid as substrate pretreated for 10 mins followed by substrate and ATP addition and measured after 20 mins by H2DCFDA probe based fluorescence assay.

The subject of data set [6] is SH-SY5Y. In words: Neuroprotective activity against rotenone/oligomycin A-induced mitochondrial oxidative stress in human SH-SY5Y cells at 0.1 uM after 24 hrs by MTT assay relative to control. The format is functional.
Data set [7] in a line: Selectivity ratio of Ki for displacement of [3H]DTG from sigma2 receptor in rat liver membranes to Ki for displacement of (+)-[3H]pentazocine from guinea pig brain membrane sigma1 receptor. The format is cell membranes.
Data set [8] deals with T3, Amine oxidase [flavin-containing] B (Homo sapiens, UniProt P27338).
T3 sequence (P27338 whole entry): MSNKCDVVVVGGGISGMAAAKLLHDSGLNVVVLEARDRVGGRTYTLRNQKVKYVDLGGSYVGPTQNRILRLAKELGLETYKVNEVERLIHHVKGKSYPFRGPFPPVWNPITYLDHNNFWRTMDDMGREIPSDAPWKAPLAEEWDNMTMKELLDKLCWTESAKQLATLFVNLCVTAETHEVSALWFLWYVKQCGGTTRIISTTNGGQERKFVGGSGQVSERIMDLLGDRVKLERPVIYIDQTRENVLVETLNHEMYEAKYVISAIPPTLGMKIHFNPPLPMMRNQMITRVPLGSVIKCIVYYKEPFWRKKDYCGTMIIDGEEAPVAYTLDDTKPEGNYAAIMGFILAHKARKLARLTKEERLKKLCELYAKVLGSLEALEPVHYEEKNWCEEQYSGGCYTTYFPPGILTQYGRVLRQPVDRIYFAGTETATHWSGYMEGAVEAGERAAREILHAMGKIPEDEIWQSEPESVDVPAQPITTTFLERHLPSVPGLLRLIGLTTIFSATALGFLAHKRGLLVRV
Nature of the data set: biochemical. The format is cell-based.
Description: Inhibition of recombinant human MAO-B expressed in baculovirus infected BTI insect cells using p-tyramine as substrate pretreated for 15 mins followed by substrate addition by horse-radish peroxidase/amplex red-based fluorescence method

For data set [9], the target named is T4, Acetylcholinesterase (Homo sapiens, UniProt P22303). In words: Inhibition of recombinant human AChE expressed in HEK293 cells using acetylthiocholine iodide as substrate pretreated for 5 mins followed by substrate addition and measured for 5 mins by Ellman's method.
Another data set in a line: in vitro. Conditions: PAMPA, pH 7.4.
The next data set has as its target Cholinesterase (Homo sapiens, UniProt P06276). Nature of the data set: Inhibition of human serum BuChE using butyrylthiocholine as substrate pretreated for 5 mins followed by substrate addition and measured for 5 mins by Ellman's method.
Data set [10] concerns SH-SY5Y. Nature of the data set: Neuroprotective activity against rotenone/oligomycin A-induced mitochondrial oxidative stress in human SH-SY5Y cells at 0.3 uM after 24 hrs by MTT assay relative to control. It counts as functional.
Data set [11] deals with T5, Polyunsaturated fatty acid 5-lipoxygenase (Homo sapiens) (UniProt P09917).
T5 sequence (whole entry): T2 sequence (P09917 whole entry)
In words: Inhibition of human 5-lipoxygenase at 10 uM using arachidonic acid as substrate pretreated for 10 mins followed by substrate and ATP addition and measured after 20 mins by […] probe based fluorescence assay relative to control.

The target in data set [12] is T6, Sigma intracellular receptor 2 (Rattus norvegicus, UniProt Q5U3Y7).
T6 sequence (Q5U3Y7 whole entry): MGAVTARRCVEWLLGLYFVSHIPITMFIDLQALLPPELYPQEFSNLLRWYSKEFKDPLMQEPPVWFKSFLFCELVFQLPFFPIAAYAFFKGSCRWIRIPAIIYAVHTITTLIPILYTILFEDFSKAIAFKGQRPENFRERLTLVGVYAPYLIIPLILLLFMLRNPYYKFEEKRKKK
Nature of the data set: Displacement of [3H]DTG from sigma2 receptor in rat liver membranes by liquid scintillation counting method. The format is cell membranes, Membrane.

The target in data set [13] is Sigma non-opioid intracellular receptor 1 (Cavia porcellus, UniProt Q60492). Nature of the data set: Displacement of (+)-[3H]pentazocine from guinea pig brain membrane sigma1 receptor by liquid scintillation counting method.
Data set [14] concerns SH-SY5Y. Nature of the data set: Neuroprotective activity against rotenone/oligomycin A-induced mitochondrial oxidative stress in human SH-SY5Y cells at 3 uM after 24 hrs by MTT assay relative to control. It counts as functional.
In data set [15] the target is T4, Acetylcholinesterase. In words: Inhibition of recombinant human AChE expressed in HEK293 cells using varying levels of acetylthiocholine iodide as substrate by Lineweaver-burk plot analysis.
The species named for data set [16] is Homo sapiens. Nature of the data set: Selectivity ratio of IC50 for recombinant human MAO-B expressed in baculovirus infected BTI insect cells to IC50 for recombinant human MAO-A expressed in baculovirus infected BTI insect cells.
A short description of data set [17]: Antioxidant activity assessed as trolox equivalent of AAPH-induced radical scavenging activity at 10 uM pretreated for 15 mins followed by APPH challenge measured every minute for 80 mins by ORAC-FL assay. The format is functional.
In data set [18] the test system is SH-SY5Y. Nature of the data set: Neuroprotective activity against rotenone/oligomycin A-induced mitochondrial oxidative stress in human SH-SY5Y cells at 10 nM after 24 hrs by MTT assay relative to control. It counts as functional.
The species entered for data set [19] is Mus musculus. In words: Neurogenic activity in C57BL/6 mouse subgranular zone neural stem cell-derived neurospheres assessed as differentiation of neural stem cells at 10 uM treated for 7 days followed by poly-L-lysine addition and measured after 3 days by DAPI staining based confocal microscopic analysis. The format is functional.
The species named for data set [20] is Mus musculus. In words: Neurogenic activity in C57BL/6 mouse subgranular zone neural stem cell-derived neurospheres assessed as neuronal maturation at 10 uM treated for 7 days followed by poly-L-lysine addition and measured after 3 days by DAPI staining based confocal microscopic analysis. It counts as functional.
For data set [21], the species on record is Homo sapiens. Nature of the data set: Selectivity ratio of IC50 for recombinant human MAO-A expressed in baculovirus infected BTI insect cells to IC50 for recombinant human MAO-B expressed in baculovirus infected BTI insect cells.

Calls of active or inactive are those of the source. The rule behind the calls is not given here.

T4 sequence (P22303 whole entry): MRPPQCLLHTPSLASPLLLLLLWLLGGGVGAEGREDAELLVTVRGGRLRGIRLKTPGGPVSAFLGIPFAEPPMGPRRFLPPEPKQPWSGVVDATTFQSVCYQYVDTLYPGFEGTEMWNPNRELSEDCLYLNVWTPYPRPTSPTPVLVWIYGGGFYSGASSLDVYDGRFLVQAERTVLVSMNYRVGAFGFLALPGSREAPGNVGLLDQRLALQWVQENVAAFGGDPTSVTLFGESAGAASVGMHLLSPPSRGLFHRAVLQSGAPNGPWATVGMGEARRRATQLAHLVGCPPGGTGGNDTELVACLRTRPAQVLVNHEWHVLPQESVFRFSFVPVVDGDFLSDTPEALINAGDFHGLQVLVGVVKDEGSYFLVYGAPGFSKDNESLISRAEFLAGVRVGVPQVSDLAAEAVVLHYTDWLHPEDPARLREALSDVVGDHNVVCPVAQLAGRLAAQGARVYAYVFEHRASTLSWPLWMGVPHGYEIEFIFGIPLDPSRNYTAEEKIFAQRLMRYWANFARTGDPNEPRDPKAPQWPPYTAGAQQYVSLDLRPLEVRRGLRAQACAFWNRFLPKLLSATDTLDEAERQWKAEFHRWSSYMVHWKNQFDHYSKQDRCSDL
Sequence of Cholinesterase (P06276 whole entry): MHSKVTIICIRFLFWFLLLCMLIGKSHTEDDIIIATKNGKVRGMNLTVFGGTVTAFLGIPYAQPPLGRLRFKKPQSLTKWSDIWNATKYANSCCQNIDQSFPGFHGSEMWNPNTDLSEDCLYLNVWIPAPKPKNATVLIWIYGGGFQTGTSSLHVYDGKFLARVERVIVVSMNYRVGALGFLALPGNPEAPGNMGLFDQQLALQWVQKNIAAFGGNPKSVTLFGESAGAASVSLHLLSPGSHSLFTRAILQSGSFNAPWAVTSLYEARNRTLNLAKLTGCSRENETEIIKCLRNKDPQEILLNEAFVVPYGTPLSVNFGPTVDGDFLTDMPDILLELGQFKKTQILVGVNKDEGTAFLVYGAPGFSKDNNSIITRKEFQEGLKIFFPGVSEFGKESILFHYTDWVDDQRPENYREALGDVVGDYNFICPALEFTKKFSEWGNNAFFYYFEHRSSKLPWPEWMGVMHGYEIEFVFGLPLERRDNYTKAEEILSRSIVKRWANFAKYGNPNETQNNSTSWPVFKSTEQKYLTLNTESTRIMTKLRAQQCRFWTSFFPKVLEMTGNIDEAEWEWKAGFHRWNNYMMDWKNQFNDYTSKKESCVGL
Sequence of Sigma non-opioid intracellular receptor 1 (Q60492 whole entry): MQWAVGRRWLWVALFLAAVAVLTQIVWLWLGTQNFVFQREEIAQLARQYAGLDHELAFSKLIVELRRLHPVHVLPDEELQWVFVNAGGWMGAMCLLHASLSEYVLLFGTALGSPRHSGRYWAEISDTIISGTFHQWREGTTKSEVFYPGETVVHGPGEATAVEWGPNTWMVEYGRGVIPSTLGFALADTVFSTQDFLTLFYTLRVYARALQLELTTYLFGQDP
Description for in vitro: Permeability of the compound in pH 7.4 PBS by PAMPA-BBB assay

As to `O=C(NCCC1CCN(Cc2ccccc2)CC1)c1cc(=O)c2cc(O)ccc2o1`, the Activity in the data set with SH-SY5Y [1] came out at 8.6%; in the data set with SH-SY5Y [6], 15%; in the data set with SH-SY5Y [10], 18.8%; with SH-SY5Y [14] it was 15.2%. In addition, the IC50 in data set [2] is 39.3 µM; in [5], over 100 µM; in data set [8] it was 51.2 µM; at Acetylcholinesterase [9], 0.091 µM; at Cholinesterase it was over 10 µM. Also, the Ratio IC50 in the data set filed under Homo sapiens [3] was over 110. Besides, the Activity (umolequiv/umol) in data set [4] is 1.2. Also, the Ratio Ki in data set [7] was 8. Further, the Papp in the data set “in vitro” was 2.8 ×10⁻⁶ cm/s. Further, the inhibition in data set [11] came to 36%. The Ki in data set [12] was 0.345 µM; in [13], 0.0421 µM.
On to `O=C(NCCC1CCN(Cc2ccccc2)CC1)c1cc(=O)c2cc([N+](=O)[O-])ccc2o1`, for which the IC50 in data set [2] was 20.5 µM; in data set [5], 9.8 µM; in data set [8] it was over 100 µM; on Acetylcholinesterase [9], 0.021 µM; on Cholinesterase, 9.3 µM. For the same compound, the Ratio IC50 in the data set listed under Homo sapiens [3] was 443; in the data set listed under Homo sapiens [16], over 5. The results for the Ki (at Acetylcholinesterase [15]; in data set [12]; in data set [13]) were 0.012 µM, 0.287 µM and 0.00098 µM, respectively. In addition, in [7], the Ratio Ki turned out to be 293. Besides, the Papp in “in vitro” was 8.2 ×10⁻⁶ cm/s. For the same compound, the result in data set [17] was inactive.
Regarding `O=C(NCCC1CCN(Cc2ccccc2)CC1)c1cc(=O)c2cc(O)ccc2[nH]1`, the Activity in the data set on SH-SY5Y [1] is given as 17.4%; with SH-SY5Y [6] it was 18.6%; with SH-SY5Y [10] it was 13.7%; with SH-SY5Y [14] it was 29.7%. Also, the IC50 was found to be 51.3 µM in [2], 59.9 µM in [8], 0.3 µM on Acetylcholinesterase [9] and 9.88 µM on Cholinesterase. Moreover, the Ratio IC50 in the data set listed under Homo sapiens [3] was 33. In addition, in data set [4], the Activity (umolequiv/umol) stood at 1.4. This compound had a Papp in “in vitro” of 5.1 ×10⁻⁶ cm/s.
`COc1ccc2[nH]cc(CCNC(C)=O)c2c1` [MELATONIN]: in the data set with SH-SY5Y [18], the Activity turned out to be 42.1%.
On to `COc1cc2oc(C(=O)NCCC3CCN(Cc4ccccc4)CC3)cc(=O)c2cc1OC`, for which the Activity in the data set with SH-SY5Y [1] is on record as 17.1%; with SH-SY5Y [6], 11.5%; with SH-SY5Y [10] it was 18.1%; in the data set with SH-SY5Y [14], 22.4%. The IC50 in data set [2] is 15.3 µM; in data set [5], 74.3 µM; in data set [8], 5.2 µM; at Acetylcholinesterase [9], 0.046 µM; at Cholinesterase, over 10 µM. The Ratio IC50 in the data set listed under Homo sapiens [3] was over 217. In addition, the Ki turned out to be 0.039 µM on Acetylcholinesterase [15], 0.239 µM in data set [12] and 0.0374 µM in [13]. The outcome in the data set filed under Mus musculus [19] and in the data set filed under Mus musculus [20] was Active. Also, in [7], the Ratio Ki was found to be 6. This compound showed a Papp in “in vitro” of 5.9 ×10⁻⁶ cm/s. Besides, in data set [17], the result was inactive.
On to `O=C(NCCC1CCN(Cc2ccccc2)CC1)c1cc(=O)c2cccc(O)c2[nH]1`, for which the IC50 is over 100 µM in [2]; 77.6 µM in data set [5]; 13.6 µM in data set [8]; 1.15 µM on Acetylcholinesterase [9]; over 10 µM on Cholinesterase. The results for the Ratio IC50 in the data set listed under Homo sapiens [3] and in the data set listed under Homo sapiens [21] were over 8.7 and 7, respectively. Further, the Activity (umolequiv/umol) in data set [4] worked out at 1. For the same compound, in data set [7], the Ratio Ki is 6. Besides, in the data set “in vitro”, the Papp turned out to be 4.9 ×10⁻⁶ cm/s. The Ki in [12] is 0.29 µM; in data set [13], 0.0474 µM.
For `COc1ccc2oc(C(=O)NC3CCN(Cc4ccccc4)CC3)cc(=O)c2c1`, the Activity with SH-SY5Y [1] is on record as 14.6%; in the data set with SH-SY5Y [6] it was 9.8%; with SH-SY5Y [10], 13.9%; in the data set with SH-SY5Y [14] it was 8.6%. Further, the Ratio IC50 in the data set listed under Homo sapiens [3] was over 10. Moreover, the IC50 on Acetylcholinesterase [9] was 0.97 µM; on Cholinesterase, over 10 µM. In addition, the apparent permeability (Papp) in “in vitro” turned out to be 7.7 ×10⁻⁶ cm/s.
